“Also recorded” adds a separate entry of the source.
How the values were obtained:
[1] = test system: MCF-7 cells; assay: Cell cycle analysis, propidium iodide, flow cytometry; assay type: cell-based, human; details: MCF-7, 10 µM, 24 hours
From the text: (§1) FIG. 30. E2-PROTACs promote estrogen receptor-dependent G2/M arrest. E2-PROTAC induced G2/M arrest in human breast cancer cell lines expressing membrane and/or intracellular estrogen receptors. […] Fixed cells were permeabilized and dyed with propidium iodide (PI). Cell cycle data were acquired on a flow cytometer and analyzed using Flow-Jo software. Data are expressed as mean ± SEM (n=3). The percentage of cells in each phase were plotted using Prism 8.0.
(§2) Cell cycle analysis. […] Following treatment, cells were harvested by trypsinization and washed twice in ice-cold PBS. Cells were then fixed in 70% ethanol at 4° C. for 30 minutes. Fixed cells were pelleted by centrifugation at 230 g for 5 minutes and the cell pellet was incubated in Krishan’s solution (3.8 mM sodium citrate (Fisher Scientific), 0.014 mM propidium iodide (AnaSpec, Fermont, Ca), 1% NP-40 (Sigma) and 2.0 mg/mL RNase A (Fisher Scientific)) for 30 minutes at 37° C. Cells were then centrifuged and washed in PBS prior to analysis using a FacScallibur flow cytometer. The data from flow cytometry were subjected to further analysis by CellQuest software version 3.3. DNA histograms generated indicate the fractions of the cell population in the sub-G1, G0-G1, S, or G2/M phase of the cell cycle.
(§3) To investigate the biological effect associated with decreased cell viability, cell cycle analysis was performed on the same four cell lines using propidium iodide staining and measured by flow cytometry 24 hours after treatment of cells with 10 µM E2-PROTAC or partial PROTAC (FIG. 30).

[2] = test system: HCC1806 cells; assay: as above; assay type: cell-based, human; details: HCC1806, 10 µM, 24 hours
From the text: as §1, §2, §3

[3] = test system: MDA-MB-231 cells; assay: as above; assay type: cell-based, human; details: MDA-MB-231, 10 µM, 24 hours
From the text: as §1, §2, §3

[4] = test system: SKBR3 cells; assay: as above; assay type: cell-based, human; details: SKBR3, 10 µM, 24 hours
From the text: as §1, §2, §3

[5] = molecular target: T1, GPER (Homo sapiens, UniProt Q99527); assay: Immunostaining of surface and intracellular GPER in SKBR3 cells; details: SKBR3, 100 uM, 1 hour
[6] = test system: MCF-7 cells; assay: Cell viability assay, 24 hour treatment; assay type: cell-based, human; details: MCF-7, 24 hours, mean ± SD
Procedure: (§4) Cell cytotoxicity assays. […] In brief, breast cancer cells were seeded in 96 well-plates at a density of 10^4 cells/well in growth media. On the following day, the contents of the 96 well plates were aspirated and replaced by treatment at different concentrations (ranging from 10^-9 to 10^-3 M), followed by the addition of media to bring the total volume to 200 µL/well. The untreated control group was incubated with 200 µL/well of fresh media. One day later, the media were aspirated and replaced by 90 µL media + 10 µL Prestoblue reagent, followed by incubation at 37° C. for 1 h. The fluorescence was excited at 560 nm and emission was recorded at 590 nm using a Spectra Max plus 384 Microplate Spectrophotometer (Molecular Devices, Sunnyvale, CA). Relative cell viability values were expressed as the percentage of the fluorescence recorded from wells containing treated cells compared to the control wells containing untreated cells.
(§5) Each breast cancer cell line was treated for 24 hours with various concentrations of E2-PROTAC or partial PROTAC and then cell viability was assessed using an MTS assay that measures mitochondrial oxido-reductase enzymes capable of converting a tetrazolium salt to a formazan dye (summarized in Table 2). […] These IC50 values were similar to those measured for cells treated with partial PROATAC.

[7] = test system: HCC1806 cells; assay: Cell viability assay, 24 hour treatment; assay type: cell-based, human; details: HCC1806, 24 hours, mean ± SD
Procedure: as §4, §5

[8] = test system: MDA-MB-231 cells; assay: Cell viability assay, 24 hour treatment; assay type: cell-based, human; details: MDA-MB-231, 24 hours
Procedure: as §4, §5

[9] = test system: SKBR3 cells; assay: Cell viability assay, 24 hour treatment; assay type: cell-based, human; details: SKBR3, 24 hours, mean ± SD
Procedure: as §4, §5

[10] = molecular target: T2, HA-GPER (recombinant GPER) (Homo sapiens, UniProt Q99527); assay: Surface receptor immunostaining / HA immunoblot in HA-GPER cells (Example 1); assay type: cell-based; details: 100 uM, 16 hr
T2 construct: expressed in transfected cells

[11] = molecular target: HA-CXCR4 (Homo sapiens, UniProt P61073); assay: Immunofluorescence with HA antibody, stably transfected HEK293 cells; assay type: cell-based; details: 100 µM, 1 hour
[12] = molecular target: T1, GPER; assay: Competitive binding assay in intact SKBR3 cells with E2-FITC as fluoro-tracer (flow cytometry); design: endogenous in cells; host or cells: SKBR3 human breast carcinoma cells (ATCC)
[13] = molecular target: ERβ (Homo sapiens, UniProt Q92731); assay: Immunostaining of endogenous receptors in MCF-7 cells; details: MCF-7, 1 hour

SMILES: Cc1ncsc1-c1ccc(CNC(=O)C2CC(O)CN2C(=O)C(NC(=O)COCCOCCOCCOCC(=O)OC2CCC3C4CCc5cc(O)ccc5C4CCC23C)C(C)(C)C)cc1 (centres unmarked) [UI-EP001]
- cell cycle distribution [1]: dramatic increase in the G2/M peak
- cell cycle distribution [2]: dramatic increase in the G2/M peak
- cell cycle distribution [3]: This shift was not observed
- cell cycle distribution [4]: dramatic increase in the G2/M peak
- plasma membrane and total GPER [5]: reduced plasma membrane and total GPER
- IC50 [6]: 9 ± 1.2 µM
- IC50 [7]: 34.9 ± 1.2 µM
- IC50 [8]: > 100 µM
- IC50 [9]: 10.9 ± 1.2 µM
- surface recombinant GPER / HA-GPER expression [10]: causes downmodulation of surface recombinant GPER; also recorded: Significant degradation of GPER was observed
- off-target degradation of HA-CXCR4 [11]: without detectable off-target degradation
- RBA%, GPER ([12]; IC50 of 17β-E2 divided by IC50 of test compound): 330%
- Kd ([12]; intact SKBR3 cells, E2-FITC, read-out: binding dissociation constant (Kd), GPER): ~0.03 µM
- nuclear ERβ expression [13]: Clear site-specific reduction
